Laboratory results reported in US9833497B2, “Human originated EGF domain proteins and use of the same” (CHENGDU SOURCEBIO LIMITED-LIABILITY COMPANY, priority 2013, dated 2017).

Assays:
Format in all cases: cell-based
E. coli DH5α = assay: Antibacterial activity: MIC and growth curve against E. coli DH5α in 96-well plate; conditions: minimal inhibitory concentration against E. coli DH5α; 96-well plate, 5×10^5 CFU/mL, 37° C., judged after 8 h
Method in brief: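 Log-phase DH5α (OD600 about 0.5, 37° C, 185 rpm in LB) was pelleted, resuspended in fresh LB and seeded at 5×10^5 CFU/mL with recombinant protein at 50, 25 and 12.5 μg/mL (two-fold series), in triplicate. Plates were shaken at 175 rpm, 37° C, and OD600 was read every 30 min. MIC was the lowest concentration with no growth.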

E. coli BL21 = assay: MIC against Gram-negative bacteria: E. coli BL21; conditions: 5×10^5 CFU/mL
Method in brief: (§1)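 Growth inhibition by human EGF domain proteins was scored in LB liquid culture seeded at 5×10^5 CFU/mL. Protein was applied as a two-fold dilution series in triplicate, with shaking incubation at 37° C; MIC is the lowest concentration giving no growth.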

Pseudomonas aeruginosa = assay: MIC against Gram-negative bacteria: Pseudomonas aeruginosa; conditions: 5×10^5 CFU/mL; for MIC (μg/mL) P. aeruginosa: Pseudomonas aeruginosa
Method in brief: as §1

Klebsiella pneumonia = assay: MIC against Gram-negative bacteria: Klebsiella pneumonia; conditions: 5×10^5 CFU/mL; for MIC (μg/mL) K. pneumonia: Klebsiella pneumonia
Method in brief: as §1

Enterobacter cloacae = assay: MIC against Gram-negative bacteria: Enterobacter cloacae; conditions: 5×10^5 CFU/mL; for MIC (μg/mL) E. cloacae: Enterobacter cloacae
Method in brief: as §1

Aeromonas hydrophila = assay: MIC against Gram-negative bacteria: Aeromonas hydrophila; conditions: 5×10^5 CFU/mL; for MIC (μg/mL) A. hydrophila: Aeromonas hydrophila
Method in brief: as §1

Citrobacter diversus = assay: MIC against Gram-negative bacteria: Citrobacter diversus; conditions: 5×10^5 CFU/mL; for MIC (μg/mL) C. diversus: Citrobacter diversus
Method in brief: as §1

Moraxella catarrhalis = assay: MIC against Gram-negative bacteria: Moraxella catarrhalis; conditions: 5×10^5 CFU/mL; for MIC (μg/mL) M. catarrhalis: Moraxella catarrhalis
Method in brief: as §1

Proteus mirabilis = assay: MIC against Gram-negative bacteria: Proteus mirabilis; conditions: 5×10^5 CFU/mL; for MIC (μg/mL) P. mirabilis: Proteus mirabilis
Method in brief: as §1

Proteus vulgaris = assay: MIC against Gram-negative bacteria: Proteus vulgaris; conditions: 5×10^5 CFU/mL; for MIC (μg/mL) P. vulgaris: Proteus vulgaris
Method in brief: as §1

Serratia marcescens = assay: MIC against Gram-negative bacteria: Serratia marcescens; conditions: 5×10^5 CFU/mL; for MIC (μg/mL) S. marcescens: Serratia marcescens
Method in brief: as §1

[1] = 10 h cultivation at 37° C., two-fold serial dilution

PRT60 (EVDECSRPNRGGCEQRCLNTLGSYKCSCDPGYELAPDKRRCE; listed as Homo sapiens)
MIC (E. coli DH5α): 12.5 µg/mL | MIC (μg/mL) E. coli BL21 (E. coli BL21; 96-well plate, 37° C., 10 h): 12.5 µg/mL | MIC (μg/mL) P. aeruginosa (Pseudomonas aeruginosa; 96-well plate, 37° C., 10 h): 12.5 µg/mL | MIC (μg/mL) K. pneumonia (Klebsiella pneumonia; 96-well plate, 37° C., 10 h): 12.5 µg/mL | MIC (μg/mL) E. cloacae (Enterobacter cloacae; 96-well plate, 37° C., 10 h): 12.5 µg/mL | MIC (μg/mL) A. hydrophila (Aeromonas hydrophila; 96-well plate, 37° C., 10 h): 12.5 µg/mL | MIC (μg/mL) C. diversus (Citrobacter diversus; 96-well plate, 37° C., 10 h): 12.5 µg/mL | MIC (μg/mL) M. catarrhalis (Moraxella catarrhalis; 96-well plate, 37° C., 10 h): 25 µg/mL | MIC (μg/mL) P. mirabilis (Proteus mirabilis; 96-well plate, 37° C., 10 h): 50 µg/mL | MIC (μg/mL) P. vulgaris (Proteus vulgaris; 96-well plate, 37° C., 10 h): 12.5 µg/mL | MIC (μg/mL) S. marcescens (Serratia marcescens; 96-well plate, 37° C., 10 h): 50 µg/mL

PRT618 (CDCDPAGIAGPCDAGRCVCKPAVTGERCDRCRSGYYNLDGGNPEGCTQ; listed as Homo sapiens)
MIC (E. coli DH5α): 50 µg/mL | MIC E. coli BL21 (E. coli BL21; 96-well plate, 37° C., 10 h): 25 µg/mL | MIC P. aeruginosa (Pseudomonas aeruginosa; 96-well plate, 37° C., 10 h): 12.5 µg/mL | MIC K. pneumonia (Klebsiella pneumonia; 96-well plate, 37° C., 10 h): 50 µg/mL | MIC E. cloacae (Enterobacter cloacae; 96-well plate, 37° C., 10 h): 12.5 µg/mL | MIC A. hydrophila (Aeromonas hydrophila; 96-well plate, 37° C., 10 h): 50 µg/mL | MIC C. diversus (Citrobacter diversus; 96-well plate, 37° C., 10 h): 12.5 µg/mL | MIC M. catarrhalis (Moraxella catarrhalis; 96-well plate, 37° C., 10 h): 50 µg/mL | MIC P. mirabilis (Proteus mirabilis; 96-well plate, 37° C., 10 h): 12.5 µg/mL | MIC P. vulgaris (Proteus vulgaris; 96-well plate, 37° C., 10 h): 50 µg/mL | MIC S. marcescens (Serratia marcescens; 96-well plate, 37° C., 10 h): 25 µg/mL

PRT594 (CACNNNIDVTDPESCSRVTGECLRCLHNTQGANCQLCKPGHYGSALNQTCRR; listed as Homo sapiens)
MIC (E. coli DH5α): 12.5 µg/mL | MIC E. coli BL21 (E. coli BL21; 96-well plate, 37° C., 10 h): 25 µg/mL | MIC P. aeruginosa (Pseudomonas aeruginosa; 96-well plate, 37° C., 10 h): 50 µg/mL | MIC K. pneumonia (Klebsiella pneumonia; 96-well plate, 37° C., 10 h): 12.5 µg/mL | MIC E. cloacae (Enterobacter cloacae; 96-well plate, 37° C., 10 h): 50 µg/mL | MIC A. hydrophila (Aeromonas hydrophila; 96-well plate, 37° C., 10 h): 12.5 µg/mL | MIC C. diversus (Citrobacter diversus; 96-well plate, 37° C., 10 h): 50 µg/mL | MIC M. catarrhalis (Moraxella catarrhalis; 96-well plate, 37° C., 10 h): 12.5 µg/mL | MIC P. mirabilis (Proteus mirabilis; 96-well plate, 37° C., 10 h): 50 µg/mL | MIC P. vulgaris (Proteus vulgaris; 96-well plate, 37° C., 10 h): 12.5 µg/mL | MIC S. marcescens (Serratia marcescens; 96-well plate, 37° C., 10 h): 50 µg/mL

PRT43 (CKCNGHASLCNTNTGKCFCTTKGVKGDECQLCEVENRYQGNPLRGTCYY; listed as Homo sapiens)
MIC (E. coli DH5α): 12.5 µg/mL | MIC (μg/mL) E. coli BL21 (E. coli BL21; 96-well plate, 37° C., 10 h): 25 µg/mL | MIC (μg/mL) P. aeruginosa (Pseudomonas aeruginosa; 96-well plate, 37° C., 10 h): 12.5 µg/mL | MIC (μg/mL) K. pneumonia (Klebsiella pneumonia; 96-well plate, 37° C., 10 h): 25 µg/mL | MIC (μg/mL) E. cloacae (Enterobacter cloacae; 96-well plate, 37° C., 10 h): 12.5 µg/mL | MIC (μg/mL) A. hydrophila (Aeromonas hydrophila; 96-well plate, 37° C., 10 h): 25 µg/mL | MIC (μg/mL) C. diversus (Citrobacter diversus; 96-well plate, 37° C., 10 h): 12.5 µg/mL | MIC (μg/mL) M. catarrhalis (Moraxella catarrhalis; 96-well plate, 37° C., 10 h): 25 µg/mL | MIC (μg/mL) P. mirabilis (Proteus mirabilis; 96-well plate, 37° C., 10 h): 12.5 µg/mL | MIC (μg/mL) P. vulgaris (Proteus vulgaris; 96-well plate, 37° C., 10 h): 25 µg/mL | MIC (μg/mL) S. marcescens (Serratia marcescens; 96-well plate, 37° C., 10 h): 12.5 µg/mL

PRT1176 (NIDDCSPNNCSHGGTCQDLVNGFKCVCPPQWTGKTCQ; listed as Homo sapiens)
MIC (E. coli DH5α): 12.5 µg/mL | MIC E. coli BL21 (E. coli BL21; [1]): 50 µg/mL | MIC P. aeruginosa (Pseudomonas aeruginosa; [1]): 12.5 µg/mL | MIC K. pneumonia (Klebsiella pneumonia; [1]): 50 µg/mL | MIC E. cloacae (Enterobacter cloacae; [1]): 12.5 µg/mL | MIC A. hydrophila (Aeromonas hydrophila; [1]): 25 µg/mL | MIC C. diversus (Citrobacter diversus; [1]): 50 µg/mL | MIC M. catarrhalis (Moraxella catarrhalis; [1]): 12.5 µg/mL | MIC P. mirabilis (Proteus mirabilis; [1]): 50 µg/mL | MIC P. vulgaris (Proteus vulgaris; [1]): 25 µg/mL | MIC S. marcescens (Serratia marcescens; [1]): 12.5 µg/mL

PRT558 (CTCDPRGALDQLCGAGGLCRCRPGYTGTACQECSPGFHGFPSCVP; listed as Homo sapiens)
MIC (E. coli DH5α): 12.5 µg/mL | MIC against E. coli BL21 (E. coli BL21; 96-well plate, 37° C., 10 h): 25 µg/mL | MIC against P. aeruginosa (Pseudomonas aeruginosa; 96-well plate, 37° C., 10 h): 12.5 µg/mL | MIC against K. pneumonia (Klebsiella pneumonia; 96-well plate, 37° C., 10 h): 25 µg/mL | MIC against E. cloacae (Enterobacter cloacae; 96-well plate, 37° C., 10 h): 50 µg/mL | MIC against A. hydrophila (Aeromonas hydrophila; 96-well plate, 37° C., 10 h): 25 µg/mL | MIC against C. diversus (Citrobacter diversus; 96-well plate, 37° C., 10 h): 12.5 µg/mL | MIC against M. catarrhalis (Moraxella catarrhalis; 96-well plate, 37° C., 10 h): 25 µg/mL | MIC against P. mirabilis (Proteus mirabilis; 96-well plate, 37° C., 10 h): 50 µg/mL | MIC against P. vulgaris (Proteus vulgaris; 96-well plate, 37° C., 10 h): 25 µg/mL | MIC against S. marcescens (Serratia marcescens; 96-well plate, 37° C., 10 h): 12.5 µg/mL

PRT718 (MTLCSALNCQYQCHETPYGGACFCPPGYIINHNDSRTCV; listed as Homo sapiens)
MIC (E. coli DH5α): 12.5 µg/mL | MIC E. coli BL21 (E. coli BL21; 96-well plate, 37° C., 10 h): 25 µg/mL | MIC P. aeruginosa (Pseudomonas aeruginosa; 96-well plate, 37° C., 10 h): 50 µg/mL | MIC K. pneumonia (Klebsiella pneumonia; 96-well plate, 37° C., 10 h): 25 µg/mL | MIC E. cloacae (Enterobacter cloacae; 96-well plate, 37° C., 10 h): 25 µg/mL | MIC A. hydrophila (Aeromonas hydrophila; 96-well plate, 37° C., 10 h): 25 µg/mL | MIC C. diversus (Citrobacter diversus; 96-well plate, 37° C., 10 h): 25 µg/mL | MIC M. catarrhalis (Moraxella catarrhalis; 96-well plate, 37° C., 10 h): 12.5 µg/mL | MIC P. mirabilis (Proteus mirabilis; 96-well plate, 37° C., 10 h): 25 µg/mL | MIC P. vulgaris (Proteus vulgaris; 96-well plate, 37° C., 10 h): 50 µg/mL | MIC S. marcescens (Serratia marcescens; 96-well plate, 37° C., 10 h): 12.5 µg/mL
